# Data taken from publication PMC11121628, “Regulation of T Lymphocyte Functions through Calcium Signaling Modulation by Nootkatone” (International Journal of Molecular Sciences, 2024).
# pIC50: −log10 of the molar value.
# How the values were obtained:
# Assay type in all cases: cell-based
# ORAI1 (CRAC channel) = target: T1, ORAI1 (CRAC channel) (Homo sapiens, UniProt Q96D31); assay: whole-cell patch clamp of ICRAC in transfected HEK293T cells
# T1 construct: human ORAI1 (hORAI1) co-transfected with hSTIM1 in HEK293T cells; with STIM1
# KV1.3 = target: T2, KV1.3 (Homo sapiens, UniProt P22001); assay: whole-cell patch clamp of IKV1.[…] in Jurkat T cells
# T2 construct: gene KCNA3; KV1.3 current in Jurkat T cells
# KCa3.1 = target: T3, KCa3.1 (Homo sapiens, UniProt O15554); assay: whole-cell patch clamp of IKCa3.[…] in stable HEK293T cells; settings: HEK-293T
# T3 construct: gene KCNN4
# T3 sequence (O15554 whole entry): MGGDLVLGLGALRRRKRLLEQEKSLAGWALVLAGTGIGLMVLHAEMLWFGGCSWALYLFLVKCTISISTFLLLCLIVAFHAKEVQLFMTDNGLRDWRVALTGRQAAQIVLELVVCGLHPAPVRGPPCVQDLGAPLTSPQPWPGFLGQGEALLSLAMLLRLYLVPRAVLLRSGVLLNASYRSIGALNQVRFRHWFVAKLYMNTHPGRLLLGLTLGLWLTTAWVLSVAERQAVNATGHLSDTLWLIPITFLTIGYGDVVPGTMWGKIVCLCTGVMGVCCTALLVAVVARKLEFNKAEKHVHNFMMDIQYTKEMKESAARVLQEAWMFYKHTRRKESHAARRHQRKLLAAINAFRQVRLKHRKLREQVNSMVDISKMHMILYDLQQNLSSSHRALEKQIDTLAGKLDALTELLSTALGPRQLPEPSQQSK
# T2 sequence (P22001 whole entry): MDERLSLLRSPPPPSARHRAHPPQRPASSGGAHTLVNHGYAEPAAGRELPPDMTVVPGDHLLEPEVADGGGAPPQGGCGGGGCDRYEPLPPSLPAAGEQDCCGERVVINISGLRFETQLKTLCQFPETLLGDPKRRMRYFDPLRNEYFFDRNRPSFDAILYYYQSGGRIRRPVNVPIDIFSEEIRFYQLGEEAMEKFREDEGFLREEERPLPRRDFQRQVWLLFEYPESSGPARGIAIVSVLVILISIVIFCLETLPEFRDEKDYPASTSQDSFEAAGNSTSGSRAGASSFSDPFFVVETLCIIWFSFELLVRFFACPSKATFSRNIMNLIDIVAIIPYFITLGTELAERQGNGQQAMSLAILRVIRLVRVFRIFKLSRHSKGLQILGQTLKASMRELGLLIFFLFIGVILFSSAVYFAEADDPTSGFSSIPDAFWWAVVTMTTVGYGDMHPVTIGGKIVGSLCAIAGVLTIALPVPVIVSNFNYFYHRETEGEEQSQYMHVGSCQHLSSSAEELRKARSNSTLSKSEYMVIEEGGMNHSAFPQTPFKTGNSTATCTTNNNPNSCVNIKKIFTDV
# T1 sequence (Q96D31 whole entry): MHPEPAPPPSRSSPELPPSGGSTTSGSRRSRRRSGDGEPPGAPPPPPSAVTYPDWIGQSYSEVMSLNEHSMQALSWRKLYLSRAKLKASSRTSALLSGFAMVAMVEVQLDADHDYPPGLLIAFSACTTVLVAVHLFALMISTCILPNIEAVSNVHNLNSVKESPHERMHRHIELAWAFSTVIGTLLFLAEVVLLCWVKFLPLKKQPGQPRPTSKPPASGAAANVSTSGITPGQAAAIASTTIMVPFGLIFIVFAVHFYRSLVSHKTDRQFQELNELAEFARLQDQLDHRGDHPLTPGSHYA
# T1 sequence (Q13586 23-685, further chain): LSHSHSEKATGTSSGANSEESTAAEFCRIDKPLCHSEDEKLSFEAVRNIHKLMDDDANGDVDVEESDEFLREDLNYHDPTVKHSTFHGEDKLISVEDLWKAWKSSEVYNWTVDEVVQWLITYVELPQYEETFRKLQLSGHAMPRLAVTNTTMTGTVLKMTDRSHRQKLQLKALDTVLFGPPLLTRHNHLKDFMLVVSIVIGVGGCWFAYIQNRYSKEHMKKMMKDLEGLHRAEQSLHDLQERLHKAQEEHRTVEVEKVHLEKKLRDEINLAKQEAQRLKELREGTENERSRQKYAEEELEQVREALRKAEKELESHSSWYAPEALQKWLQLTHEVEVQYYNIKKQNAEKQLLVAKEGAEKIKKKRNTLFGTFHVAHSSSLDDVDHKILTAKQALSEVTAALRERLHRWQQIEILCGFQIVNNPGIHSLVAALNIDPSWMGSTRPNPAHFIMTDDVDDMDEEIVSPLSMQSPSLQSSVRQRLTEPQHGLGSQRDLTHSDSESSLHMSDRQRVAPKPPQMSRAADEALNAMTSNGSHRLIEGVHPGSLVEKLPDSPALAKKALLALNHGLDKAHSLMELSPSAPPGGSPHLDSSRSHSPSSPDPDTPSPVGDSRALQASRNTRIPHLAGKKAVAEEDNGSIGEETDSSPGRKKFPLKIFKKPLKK
structure (smiles),measurement,setting,value
C=C(C)[C@@H]1CCC2=CC(=O)C[C@@H](C)[C@]2(C)C1 [nootkatone],pIC50,ORAI1 (CRAC channel),~4.90
same,pIC50,KV1.3,4.97
same,inhibition at 100 µM,KCa3.1,~20%
